Laboratory results reported in the NIST ThermoML archive (doi:10.1021/je050277k).
Numbers after ± are expanded uncertainties.

O=C1CCCCCN1 [1-aza-2-cycloheptanone]
Conditions | vapor or sublimation pressure [kPa]
293.43 K, Crystal, Calculated from knudsen effusion weight loss | 0.000153 ± 9e-06
298.39 K, Crystal, Calculated from knudsen effusion weight loss | 0.000275 ± 1.7e-05
302.3 K, Crystal, Transpiration method | 0.00043 ± 3e-05
303.32 K, Crystal, Calculated from knudsen effusion weight loss | 0.000474 ± 2.9e-05
305.4 K, Crystal, Transpiration method | 0.00066 ± 4e-05
306.2 K, Crystal, Transpiration method | 0.0007 ± 4e-05
308.31 K, Crystal, Calculated from knudsen effusion weight loss | 0.000813 ± 5.1e-05
308.38 K, Crystal, Calculated from knudsen effusion weight loss | 0.000858 ± 5.4e-05
309.2 K, Crystal, Transpiration method | 0.00093 ± 6e-05
312.2 K, Crystal, Transpiration method | 0.00127 ± 8e-05
313.22 K, Crystal, Calculated from knudsen effusion weight loss | 0.00143 ± 0.00013
314.7 K, Crystal, Transpiration method | 0.00175 ± 0.00011
316.7 K, Crystal, Transpiration method | 0.0021 ± 0.00013
318.09 K, Crystal, Calculated from knudsen effusion weight loss | 0.00235 ± 0.00023
321.1 K, Crystal, Transpiration method | 0.00327 ± 0.0002
321.3 K, Crystal, Transpiration method | 0.00365 ± 0.00023
322.98 K, Crystal, Calculated from knudsen effusion weight loss | 0.00393 ± 0.00041
323.06 K, Crystal, Calculated from knudsen effusion weight loss | 0.00379 ± 0.0004
323.9 K, Crystal, Transpiration method | 0.00427 ± 0.00026
326.3 K, Crystal, Transpiration method | 0.00568 ± 0.00035
327.93 K, Crystal, Calculated from knudsen effusion weight loss | 0.00636 ± 0.00071
328 K, Crystal, Calculated from knudsen effusion weight loss | 0.0061 ± 0.00068
328.3 K, Crystal, Transpiration method | 0.00668 ± 0.00041
330.2 K, Crystal, Transpiration method | 0.00801 ± 0.00049
332.89 K, Crystal, Calculated from knudsen effusion weight loss | 0.01 ± 0.0012
332.93 K, Crystal, Calculated from knudsen effusion weight loss | 0.0105 ± 0.0012
333.2 K, Crystal, Transpiration method | 0.01064 ± 0.00065
336.3 K, Crystal, Transpiration method | 0.01422 ± 0.00087
337.4 K, Crystal, Transpiration method | 0.01727 ± 0.0011
337.82 K, Crystal, Calculated from knudsen effusion weight loss | 0.0155 ± 0.0019
339 K, Crystal, Transpiration method | 0.01833 ± 0.0011
345.2 K, Liquid, Transpiration method | 0.0319 ± 0.002
345.8 K, Liquid, Transpiration method | 0.0322 ± 0.002
347.8 K, Liquid, Transpiration method | 0.0376 ± 0.0023
350.9 K, Liquid, Transpiration method | 0.0457 ± 0.0028
353.9 K, Liquid, Transpiration method | 0.0564 ± 0.0035
355.4 K, Liquid, Transpiration method | 0.0612 ± 0.0037
357 K, Liquid, Transpiration method | 0.071 ± 0.0043
359.1 K, Liquid, Transpiration method | 0.0758 ± 0.0046
360.2 K, Liquid, Transpiration method | 0.089 ± 0.0055
362.1 K, Liquid, Transpiration method | 0.0992 ± 0.0061
363.1 K, Liquid, Transpiration method | 0.103 ± 0.0063
364.9 K, Liquid, Transpiration method | 0.1189 ± 0.0073
366.3 K, Liquid, Transpiration method | 0.1294 ± 0.0079
369.7 K, Liquid, Transpiration method | 0.16 ± 0.0098
372.2 K, Liquid, Transpiration method | 0.1866 ± 0.011
